Reference: patent US20090181963A1, “3H-[1,2,3]TRIAZOLO[4,5-D]PYRIMIDINE COMPOUNDS, THEIR USE AS mTOR KINASE AND PI3 KINASE INHIBITORS, AND THEIR [sequence]” (Wyeth, priority 2008, published 2009)

What was measured:
PI3 Kinase α = PI3 Kinase α (Homo sapiens, UniProt P42336); test: Fluorescence polarization assay for PI3K (PI3 Kinase α); type: biochemical; settings: diC8-PI(4,5)P2 substrate, 25 μM ATP, one hour at 25° C.
PI3 Kinase γ = PI3 Kinase γ (Homo sapiens, UniProt P48736); test: Fluorescence polarization assay for PI3K (PI3 Kinase γ); type: biochemical; settings: diC8-PI(4,5)P2 substrate, 25 μM ATP, one hour at 25° C.
PI3 Kinase γ, sequence (P48736 whole entry): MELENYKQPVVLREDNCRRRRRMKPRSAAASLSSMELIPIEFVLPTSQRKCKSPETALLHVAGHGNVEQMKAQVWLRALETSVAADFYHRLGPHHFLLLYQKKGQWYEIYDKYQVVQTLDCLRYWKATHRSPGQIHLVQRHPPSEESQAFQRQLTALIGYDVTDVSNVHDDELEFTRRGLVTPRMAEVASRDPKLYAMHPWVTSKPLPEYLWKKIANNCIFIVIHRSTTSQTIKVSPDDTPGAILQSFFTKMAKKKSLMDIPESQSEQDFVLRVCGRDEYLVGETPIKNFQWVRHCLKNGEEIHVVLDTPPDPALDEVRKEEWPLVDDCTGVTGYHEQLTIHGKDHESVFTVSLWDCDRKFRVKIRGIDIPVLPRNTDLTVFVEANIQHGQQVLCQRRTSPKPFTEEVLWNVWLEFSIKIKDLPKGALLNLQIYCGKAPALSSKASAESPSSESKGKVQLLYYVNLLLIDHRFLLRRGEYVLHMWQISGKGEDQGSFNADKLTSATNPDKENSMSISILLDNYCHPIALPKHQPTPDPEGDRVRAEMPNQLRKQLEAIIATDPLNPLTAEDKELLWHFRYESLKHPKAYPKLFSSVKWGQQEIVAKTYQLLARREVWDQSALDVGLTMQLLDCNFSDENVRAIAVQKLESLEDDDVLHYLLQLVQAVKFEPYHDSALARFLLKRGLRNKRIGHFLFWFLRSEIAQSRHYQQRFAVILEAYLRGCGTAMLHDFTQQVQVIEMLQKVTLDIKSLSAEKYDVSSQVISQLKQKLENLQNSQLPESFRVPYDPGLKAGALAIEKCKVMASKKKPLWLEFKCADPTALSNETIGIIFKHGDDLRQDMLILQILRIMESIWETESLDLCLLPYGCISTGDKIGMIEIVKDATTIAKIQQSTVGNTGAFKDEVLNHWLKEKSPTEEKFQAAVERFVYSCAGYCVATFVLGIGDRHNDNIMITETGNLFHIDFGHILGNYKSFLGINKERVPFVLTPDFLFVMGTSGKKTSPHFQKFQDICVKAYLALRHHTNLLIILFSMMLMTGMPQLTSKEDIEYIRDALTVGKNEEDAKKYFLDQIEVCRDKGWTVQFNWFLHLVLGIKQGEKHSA
Protocol: Nunc 384 well black polypropylene fluorescent plates were used for PI3K assays. Reactions were quenched by the addition of EDTA to a final concentration of 10 μM. Final reaction volumes were 10 ml. […] Reactions were allowed to proceed for one hour at 25° C. After I hour, GST-tagged GRP1 (general receptor for phosphoinositides) PH domain fusion protein was added to a final concentration of 100 nM, and BODIPY-TMRI(1,3,4,5)P4 (Echelon) was also added to a final concentration of 5 nM. Final sample volumes were 25 μl with a final DMSO concentration of 0.8%. Assay Plates were read on PerkinElmer Envision plate readers with appropriate filters for Tamra [BODIPY-TMRI(1,3,4,5)P4]. Data obtained were used to calculate enzymatic activity and enzyme inhibition by inhibitor compounds.

PI3 Kinase α, sequence (P42336 whole entry): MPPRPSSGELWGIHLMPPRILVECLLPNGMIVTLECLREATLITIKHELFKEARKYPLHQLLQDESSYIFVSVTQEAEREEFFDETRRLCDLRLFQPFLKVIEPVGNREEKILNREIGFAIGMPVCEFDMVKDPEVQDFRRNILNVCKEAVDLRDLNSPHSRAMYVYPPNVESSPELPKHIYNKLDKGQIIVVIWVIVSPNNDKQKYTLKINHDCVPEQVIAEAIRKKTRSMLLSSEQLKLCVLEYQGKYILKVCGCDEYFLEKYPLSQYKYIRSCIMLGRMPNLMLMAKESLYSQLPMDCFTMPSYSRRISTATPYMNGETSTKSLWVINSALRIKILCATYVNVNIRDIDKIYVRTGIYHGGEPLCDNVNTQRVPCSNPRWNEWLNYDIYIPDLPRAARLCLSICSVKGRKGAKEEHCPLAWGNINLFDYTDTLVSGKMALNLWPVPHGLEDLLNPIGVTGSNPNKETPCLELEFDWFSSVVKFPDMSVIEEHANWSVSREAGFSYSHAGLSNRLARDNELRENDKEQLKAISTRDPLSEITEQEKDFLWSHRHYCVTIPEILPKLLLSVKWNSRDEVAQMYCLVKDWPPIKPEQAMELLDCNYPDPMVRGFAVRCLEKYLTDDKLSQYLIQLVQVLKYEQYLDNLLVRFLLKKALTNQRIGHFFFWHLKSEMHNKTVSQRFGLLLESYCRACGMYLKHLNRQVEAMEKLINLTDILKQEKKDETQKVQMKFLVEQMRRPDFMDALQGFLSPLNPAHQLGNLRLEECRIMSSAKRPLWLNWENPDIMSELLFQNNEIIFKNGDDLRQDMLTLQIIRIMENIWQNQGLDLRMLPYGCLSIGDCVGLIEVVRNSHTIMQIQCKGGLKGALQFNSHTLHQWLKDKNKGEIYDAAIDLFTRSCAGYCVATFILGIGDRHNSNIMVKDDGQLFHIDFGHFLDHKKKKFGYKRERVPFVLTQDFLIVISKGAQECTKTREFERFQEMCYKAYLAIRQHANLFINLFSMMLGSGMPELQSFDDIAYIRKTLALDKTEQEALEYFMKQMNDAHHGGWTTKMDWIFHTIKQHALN
PI3 Kinase α, sequence (P27986 whole entry partner): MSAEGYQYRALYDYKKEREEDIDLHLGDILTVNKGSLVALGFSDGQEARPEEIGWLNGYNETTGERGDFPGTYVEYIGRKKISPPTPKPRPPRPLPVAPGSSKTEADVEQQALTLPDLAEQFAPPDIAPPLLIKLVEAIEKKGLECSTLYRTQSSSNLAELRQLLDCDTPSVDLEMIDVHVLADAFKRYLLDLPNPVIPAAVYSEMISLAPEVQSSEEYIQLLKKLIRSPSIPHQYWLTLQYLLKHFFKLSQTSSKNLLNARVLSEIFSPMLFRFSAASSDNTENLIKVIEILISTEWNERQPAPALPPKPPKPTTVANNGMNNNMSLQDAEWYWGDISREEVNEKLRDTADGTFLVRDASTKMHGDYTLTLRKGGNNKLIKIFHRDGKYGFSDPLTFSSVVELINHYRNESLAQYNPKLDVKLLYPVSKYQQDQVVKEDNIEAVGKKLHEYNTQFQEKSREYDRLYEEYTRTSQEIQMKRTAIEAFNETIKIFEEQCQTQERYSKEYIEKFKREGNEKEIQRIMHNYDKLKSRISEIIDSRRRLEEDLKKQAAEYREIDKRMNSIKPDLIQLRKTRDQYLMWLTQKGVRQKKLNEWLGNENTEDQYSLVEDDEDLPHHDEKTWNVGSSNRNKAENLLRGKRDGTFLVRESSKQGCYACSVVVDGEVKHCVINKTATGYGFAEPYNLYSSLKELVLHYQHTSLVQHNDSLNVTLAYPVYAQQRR

SMILES	IC50 (PI3 Kinase α) [µM]	IC50 (PI3 Kinase γ) [µM]
CC(C)n1nnc2c(N3CCOCC3)nc(-c3ccc(NC(N)=O)cc3)nc21 [Example 96, [4-(3-isopropyl-7-morpholin-4-yl-3H-[1,2,3]triazolo[4,5-d]pyrimidin-5-yl)-phenyl]-urea]	0.0497	0.62
O=C(Nc1ccc(-c2nc(N3CCOCC3)c3nnn(C4CC4)c3n2)cc1)Nc1cccs1 [Example 80, 1-(4-(3-cyclopropyl-7-morpholino-3H-[1,2,3]triazolo[4,5-d]pyrimidin-5-yl)phenyl)-3-(thiophen-2-yl)urea]	0.003	0.0195
Cn1cccc1CN1CCC(n2nnc3c(N4CCOCC4)nc(-c4cncc(O)c4)nc32)CC1 [Example 19, 5-(3-{1-[(1-methyl-1H-pyrrol-2-yl)methyl]piperidin-4-yl}-7-morpholin-4-yl-3H-[1,2,3]triazolo[4,5-d]pyrimidin-5-yl)pyridin-3-ol]	0.083	0.277
CC(C)(C)OC(=O)N1CC(Cn2nnc3c(N4CCOCC4)nc(-c4ccc(NC(=O)Nc5ccccc5)cc4)nc32)C1 [Example 188, tert-butyl 3-[(7-morpholin-4-yl-5-{4-[(phenylcarbamoyl)amino]phenyl}-3H-[1,2,3]triazolo[4,5-d]pyrimidin-3-yl)methyl]azetidine-1-carboxylate]	0.0195	0.517
CNC(=O)c1ccc(Cn2nnc3c(N4CCOCC4)nc(-c4cccc(O)c4)nc32)cc1 [Example 207, 4-{[5-(3-hydroxyphenyl)-7-morpholin-4-yl-3H-[1,2,3]triazolo[4,5-d]pyrimidin-3-yl]methyl}-N-methylbenzamide]	0.342	2.65
CCn1nnc2c(N3CCOC[C@@H]3C)nc(-c3ccc(N)cc3)nc21 [Example 67, (S)-4-(3-ethyl-7-(3-methylmorpholino)-3H-[1,2,3]triazolo[4,5-d]pyrimidin-5-yl)aniline]	2.14	> 10
CN(C)CCNC(=O)Nc1ccc(-c2nc(N3CCOCC3)c3nnn(C4CCN(Cc5ccccc5)CC4)c3n2)cc1 [Example 4, 1-{4-[3-(1-benzylpiperidin-4-yl)-7-morpholin-4-yl-3H-[1,2,3]triazolo[4,5-d]pyrimidin-5-yl]phenyl}-3-[2-(dimethylamino)ethyl]urea]	0.066	0.204
CC(C)(C)OC(=O)Cn1nnc2c(N3CCOCC3)nc(-c3cccc(CO)c3)nc21 [Example 232, tert-butyl {5-[3-(hydroxymethyl)phenyl]-7-morpholin-4-yl-3H-[1,2,3]triazolo[4,5-d]pyrimidin-3-yl}acetate]	0.37	1.95
Oc1cncc(-c2nc(N3CCOCC3)c3nnn(C4CCN(Cc5ccc(Br)nc5)CC4)c3n2)c1 [Example 15, 5-(3-{1-[(6-bromopyridin-3-yl)methyl]piperidin-4-yl}-7-morpholin-4-yl-3H-[1,2,3]triazolo[4,5-d]pyrimidin-5-yl)pyridin-3-ol]	0.016	0.106
CC(C)n1nnc2c(N3CCOCC3)nc(-c3ccc(NC(=O)NCCN(C)C)cc3)nc21 [Example 88, 1-[2-(dimethylamino)ethyl]-3-[4-(3-isopropyl-7-morpholin-4-yl-3H-[1,2,3]triazolo[4,5-d]pyrimidin-5-yl)phenyl]urea]	0.0775	0.197
CCn1nnc2c(N3CCOCC3)nc(-c3ccc(NC(=O)Nc4ccc(C(=O)NCCO)cc4)cc3)nc21 [Example 46, 4-({[4-(3-ethyl-7-morpholin-4-yl-3H-[1,2,3]triazolo[4,5-d]pyrimidin-5-yl)phenyl]carbamoyl}amino)-N-(2-hydroxyethyl)benzamide]	0.0028	0.0145
CCn1nnc2c(N3CCOC[C@@H]3C)nc(-c3ccc(NC(=O)Nc4ccc(N5CCN(C)CC5)cc4)cc3)nc21 [Example 76, (S)-1-(4-(3-ethyl-7-(3-methylmorpholino)-3H-[1,2,3]triazolo[4,5-d]pyrimidin-5-yl)phenyl)-3-(4-(4-methylpiperazin-1-yl)phenyl)urea]	0.005	0.032
COC(Cn1nnc2c(N3CCOCC3)nc(-c3ccc(NC(=O)Nc4ccc(C(N)=O)cc4)cc3)nc21)OC [Example 182, 4-[({4-[3-(2,2-dimethoxyethyl)-7-morpholin-4-yl-3H-[1,2,3]triazolo[4,5-d]pyrimidin-5-yl]phenyl}carbamoyl)amino]benzamide]	0.004	0.027
Cn1nnc2c(N3CCOCC3)nc(-c3ccc(NC(=O)Nc4cccs4)cc3)nc21 [Example 200, 1-[4-(3-methyl-7-morpholin-4-yl-3H-[1,2,3]triazolo[4,5-d]pyrimidin-5-yl)phenyl]-3-(2-thienyl)urea]	0.0065	0.022
CC(C)(C)OC(=O)N1CC(n2nnc3c(N4CCOCC4)nc(-c4ccc(NC(=O)Nc5cccs5)cc4)nc32)C1 [Example 132, tert-butyl 3-(7-morpholin-4-yl-5-{4-[(2-thienylcarbamoyl)amino]phenyl}-3H-[1,2,3]triazolo[4,5-d]pyrimidin-3-yl)azetidine-1-carboxylate]	0.021	1.43
CC(C)(C)OC(=O)Cn1nnc2c(N3CCOCC3)nc(-c3cccc(O)c3)nc21 [Example 233, tert-butyl [5-(3-hydroxyphenyl)-7-morpholin-4-yl-3H-[1,2,3]triazolo[4,5-d]pyrimidin-3-yl]acetate]	0.501	2.72
CC(C)n1nnc2c(N3CCOCC3)nc(-c3ccc(NC(=O)Nc4cccnc4)cc3)nc21 [Example 83, 1-[4-(3-isopropyl-7-morpholin-4-yl-3H-[1,2,3]triazolo[4,5-d]pyrimidin-5-yl)-phenyl]-3-pyridin-3-yl-urea]	0.0105	0.0485
CC(C)(C)OC(=O)N1CC(n2nnc3c(N4CCOCC4)nc(-c4ccc(NC(=O)Nc5cccnc5)cc4)nc32)C1 [Example 130, tert-butyl 3-(7-morpholin-4-yl-5-{4-[(pyridin-3-ylcarbamoyl)amino]phenyl}-3H-[1,2,3]triazolo[4,5-d]pyrimidin-3-yl)azetidine-1-carboxylate]	0.034	0.165
O=C(Nc1ccccc1)Nc1ccc(-c2nc(N3CCOCC3)c3nnn(CCO)c3n2)cc1 [Example 186, 1-{4-[3-(2-hydroxyethyl)-7-morpholin-4-yl-3H-[1,2,3]triazolo[4,5-d]pyrimidin-5-yl]phenyl}-3-phenylurea]	0.0047	0.022

Second part, the compound after the results:

IC50 (PI3 Kinase α) [µM]	IC50 (PI3 Kinase γ) [µM]	SMILES
0.255	0.983	Oc1cccc(-c2nc(N3CCOCC3)c3nnn(CCN4CCN(Cc5ccccc5)CC4)c3n2)c1 [Example 114, 3-{3-[2-(4-benzylpiperazin-1-yl)ethyl]-7-morpholin-4-yl-3H-[1,2,3]triazolo[4,5-d]pyrimidin-5-yl}phenol]
0.541	0.454	Oc1cncc(-c2nc(N3CCOCC3)c3nnn(C4CCN(Cc5ccc(Cl)nc5)CC4)c3n2)c1 [Example 20, 5-(3-{1-[(6-chloropyridin-3-yl)methyl]piperidin-4-yl}-7-morpholin-4-yl-3H-[1,2,3]triazolo[4,5-d]pyrimidin-5-yl)pyridin-3-ol]
0.56	1.88	CNC(=O)Cn1nnc2c(N3CCOCC3)nc(-c3cccc(CO)c3)nc21 [Example 236, 2-{5-[3-(hydroxymethyl)phenyl]-7-morpholin-4-yl-3H-[1,2,3]triazolo[4,5-d]pyrimidin-3-yl}-N-methylacetamide]
0.318	1.5	CN(CCNC(=O)Nc1ccc(-c2nc(N3CCOCC3)c3nnn(CC(F)(F)F)c3n2)cc1)C(=O)OC(C)(C)C [Example 139, tert-butyl methyl{2-[({4-[7-morpholin-4-yl-3-(2,2,2-trifluoroethyl)-3H-[1,2,3]triazolo[4,5-d]pyrimidin-5-yl]phenyl}carbamoyl)amino]ethyl}carbamate]
< 0.0026	0.0165	CCn1nnc2c(N3CCOCC3)nc(-c3ccc(NC(=O)Nc4ccc(C(N)=O)cc4)cc3)nc21 [Example 60, 4-({[4-(3-ethyl-7-morpholin-4-yl-3H-[1,2,3]triazolo[4,5-d]pyrimidin-5-yl)phenyl]carbamoyl}amino)benzamide]
0.016	0.108	Cc1cc(CN2CCC(n3nnc4c(N5CCOCC5)nc(-c5cncc(O)c5)nc43)CC2)sc1C [Example 26, 5-(3-{1-[(4,5-dimethyl-2-thienyl)methyl]piperidin-4-yl}-7-morpholin-4-yl-3H-[1,2,3]triazolo[4,5-d]pyrimidin-5-yl)pyridin-3-ol]
0.036	0.551	CNC(=O)c1cccc(-n2nnc3c(N4CCOCC4)nc(-c4cccc(O)c4)nc32)c1 [Example 121, 3-[5-(3-hydroxyphenyl)-7-morpholin-4-yl-3H-[1,2,3]triazolo[4,5-d]pyrimidin-3-yl]-N-methylbenzamide]
0.204	1.23	CCN1CCCC1Cn1nnc2c(N3CCOCC3)nc(-c3cccc(O)c3)nc21 (stereo not drawn) [Example 172, 3-{3-[(1-ethylpyrrolidin-2-yl)methyl]-7-morpholin-4-yl-3H-[1,2,3]triazolo[4,5-d]pyrimidin-5-yl}phenol]
0.001	0.018	CCn1nnc2c(N3CCOCC3)nc(-c3ccc(NC(=O)Nc4ccc(C(=O)NCCN(C)C)cc4)cc3)nc21 [Example 43, N-[2-(dimethylamino)ethyl]-4-({[4-(3-ethyl-7-morpholin-4-yl-3H-[1,2,3]triazolo[4,5-d]pyrimidin-5-yl)phenyl]carbamoyl}amino)benzamide]
0.0745	0.342	Cc1ccc(CN2CCC(n3nnc4c(N5CCOCC5)nc(-c5ccc(NC(=O)NCCN(C)C)cc5)nc43)CC2)s1 [Example 158, 1-(2-(dimethylamino)ethyl)-3-(4-(3-(1-((5-methylthiophen-2-yl)methyl)piperidin-4-yl)-7-morpholino-3H-[1,2,3]triazolo[4,5-d]pyrimidin-5-yl)phenyl)urea]
0.0018	0.018	CCn1nnc2c(N3CCOCC3)nc(-c3ccc(NC(=O)Nc4ccc(C(=O)N5CCC(N6CCCCC6)CC5)cc4)cc3)nc21 [Example 50, 1-[4-(1,4′-bipiperidin-1′-ylcarbonyl)phenyl]-3-[4-(3-ethyl-7-morpholin-4-yl-3H-[1,2,3]triazolo[4,5-d]pyrimidin-5-yl)phenyl]urea]
